Assay results: patent publication US11685746B2, “Heteroaryl compounds for treating Huntington's disease” (PTC THERAPEUTICS, INC., priority 2018, dated 2023)

system: Endogenous Huntingtin Protein; experiment: Endogenous Huntingtin Protein Assay (MSD plates, MW1 or MAB2166 capture antibody); assay type: cell-based; conditions: Table 1
Procedure, shortened: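 Endogenous huntingtin was captured overnight at 4° C on wells coated with 1 μg/mL MW1 (polyglutamine-specific) or MAB2166. Detection used rabbit #5656S and then goat anti-rabbit SULFO-TAG, both at 0.25 μg/mL and 1 h at room temperature. Plates were imaged on the MSD system in read buffer T.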

Structure (SMILES) | IC50 [µM]
CN1CCC2(CC1)CCN2c1nc2sc(-c3ncc(-c4cn[nH]c4)cc3O)nc2s1 [Compound 179, 2-[5-(7-methyl-1,7-diazaspiro[3.5]nonan-1-yl)[1,3]thiazolo[5,4-d][1,3]thiazol-2-yl]-5-(1H-pyrazol-4-yl)pyridin-3-ol] | ≤ 0.1
CCN(c1nc2sc(-c3ncc(-c4cn[nH]c4)cc3O)nc2s1)C1CCNCC1 [Compound 61, 2-{5-[ethyl(piperidin-4-yl)amino][1,3]thiazolo[5,4-d][1,3]thiazol-2-yl}-5-(1H-pyrazol-4-yl)pyridin-3-ol] | ≤ 0.1
Cc1ncc(-c2cnc(-c3nc4sc(N(C)C5CCNCC5)nc4s3)c(O)c2)o1 [Compound 223, 5-(2-methyl-1,3-oxazol-5-yl)-2-{5-[methyl(piperidin-4-yl)amino][1,3]thiazolo[5,4-d][1,3]thiazol-2-yl}pyridin-3-ol] | ≤ 0.1
CN(c1nc2sc(-c3ccc(-c4cn[nH]c4)cc3O)nc2s1)[C@H]1CCNC1 [Compound 54, 2-(5-{methyl[(3S)-pyrrolidin-3-yl]amino}[1,3]thiazolo[5,4-d][1,3]thiazol-2-yl)-5-(1H-pyrazol-4-yl)phenol] | ≤ 0.1
CN(c1nc2sc(-n3ccc(-c4cn[nH]c4)cc3=O)nc2s1)[C@@H]1C[C@H]2CC[C@@H](C1)N2C [Compound 178, 1-(5-{methyl[(1R,3s,5S)-8-methyl-8-azabicyclo[3.2.1]octan-3-yl]amino}[1,3]thiazolo[5,4-d][1,3]thiazol-2-yl)-4-(1H-pyrazol-4-yl)pyridin-2(1H)-one] | ≤ 0.1
CN(c1nc2sc(-c3cnc(-n4ccnc4)cn3)nc2s1)C1CC(C)(C)NC(C)(C)C1 [Compound 102, 5-[5-(1H-imidazol-1-yl)pyrazin-2-yl]-N-methyl-N-(2,2,6,6-tetramethylpiperidin-4-yl)[1,3]thiazolo[5,4-d][1,3]thiazol-2-amine] | ≤ 0.1
CN(c1nc2sc(-c3ccc(-c4ccnc(O)c4)cc3O)nc2s1)C1CCNCC1 [Compound 35, 4-(3-hydroxy-4-{5-[methyl(piperidin-4-yl)amino][1,3]thiazolo[5,4-d][1,3]thiazol-2-yl}phenyl)pyridin-2-ol] | 3 to 9
CN(c1nc2sc(-c3ncc(-c4cn[nH]c4)cc3O)nc2s1)C1CC(C)(C)NC(C)(C)C1 [Compound 42, 2-{5-[methyl(2,2,6,6-tetramethylpiperidin-4-yl)amino][1,3]thiazolo[5,4-d][1,3]thiazol-2-yl}-5-(1H-pyrazol-4-yl)pyridin-3-ol] | ≤ 0.1
CN(c1nc2sc(-c3cc(F)c(-c4cn[nH]c4)cc3F)nc2s1)[C@@H]1C[C@H]2CC[C@@H](C1)N2 [Compound 158, N-[(1R,3s,5S)-8-azabicyclo[3.2.1]octan-3-yl]-5-[2,5-difluoro-4-(1H-pyrazol-4-yl)phenyl]-N-methyl[1,3]thiazolo[5,4-d][1,3]thiazol-2-amine] | ≤ 0.1
CN(c1nc2sc(-c3cnc(-c4cnn(C)c4)cn3)nc2s1)C1CC(C)(C)NC(C)(C)C1 [Compound 94, N-methyl-5-[5-(1-methyl-1H-pyrazol-4-yl)pyrazin-2-yl]-N-(2,2,6,6-tetramethylpiperidin-4-yl)[1,3]thiazolo[5,4-d][1,3]thiazol-2-amine] | ≤ 0.1
CN(c1nc2sc(-n3cnc(-c4cn[nH]c4)cc3=O)nc2s1)[C@@H]1C[C@H]2CC[C@@H](C1)N2C [Compound 153, 3-(5-{methyl[(1R,3s,5S)-8-methyl-8-azabicyclo[3.2.1]octan-3-yl]amino}[1,3]thiazolo[5,4-d][1,3]thiazol-2-yl)-6-(1H-pyrazol-4-yl)pyrimidin-4(3H)-one] | ≤ 0.1
CC1CC(N(C)c2nc3sc(-c4ncc(-c5cn[nH]c5)cn4)nc3s2)CCN1C (stereo not drawn) [Compound 129, N-(1,2-dimethylpiperidin-4-yl)-N-methyl-5-[5-(1H-pyrazol-4-yl)pyrimidin-2-yl][1,3]thiazolo[5,4-d][1,3]thiazol-2-amine] | 0.1 to 0.5
